Measurements taken from paper PMC7413254 (Nature Communications, 2020).

How the values were obtained:
non-expressing oocytes [1] = experiment: cells; type: cell-based, Xenopus laevis; conditions: non-expressing oocytes, total [3H]CQ transport, normalised to the oocyte type control
How it was run: (§1)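 Radioactivity accumulated per oocyte, read by liquid scintillation after 10% SDS lysis, served as the uptake measure. Incubations ran 1.5 h at 27.5 °C in ND96 at pH 5.5, matching digestive-vacuole acidity.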

PfCRT^3D7 [2] = biological target: T1, PfCRT^3D7 (Plasmodium falciparum, UniProt Q8IBZ9); experiment: cell-based; type: cell-based; conditions: PfCRT3D7 oocytes, total [3H]CQ transport, normalised to the oocyte type control
How it was run: as §1

PfCRT^Dd2 [3] = biological target: T2, PfCRT^Dd2 (Plasmodium falciparum, UniProt Q9N623, A220S/I356T/K76T/M74I/N326S/N75E/Q271E/R371I); experiment: [3H]CQ uptake into Xenopus oocytes, cis-inhibition by unlabelled solute; type: cell-based; conditions: PfCRTDd2 oocytes, background [3H]CQ accumulation subtracted, normalised to oocyte type control
How it was run: as §1

PfCRT^Ecu1110 [4] = biological target: T3, PfCRT^Ecu1110 (Plasmodium falciparum, UniProt Q9N623, A220S/I356L/K76T/N326D); experiment: as above; type: cell-based; conditions: for Uptake of [3H]CQ (% PfCRTEcu1110 control), cis-inhibition / PfCRT-mediated [3H]CQ transport, cis-inhibition (% PfCRTEcu1110 control): PfCRTEcu1110 oocytes; for Uptake of [3H]CQ (% PfCRTEcu1110 control), cis-inhibition: total [3H]CQ transport, normalised to the oocyte type control; for PfCRT-mediated [3H]CQ transport, cis-inhibition (% PfCRTEcu1110 control): background [3H]CQ accumulation subtracted, normalised to oocyte type control; for [3H]CQ transport (% PfCRTEcu1110 control), cis-inhibition, PfCRTEcu1110: PfCRT-mediated component (background subtracted), sheet title says normalised to PfCRTDd2 control, mean ± SEM, SEM
How it was run: as §1

non-expressing oocytes [5] = type: cell-based, Xenopus laevis; conditions: non-expressing oocytes; [test solute]i = 45 mM (30 mM for some solutes due to solubility); total [3H]CQ transport, normalised to the oocyte type control
How it was run: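 Oocytes (ten per treatment, ≥4 independent frogs/days) were preloaded by injecting VF-6 in 25 nL ND96 at pH 5.0, 5.5, 6.0 or 7.0, or Na^+-free choline buffer, then uptake run 1.5 h, 27.5 °C, ND96 pH 5.5 by default. Internal concentrations assumed ~400 nL oocyte volume.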

PfCRT^3D7 [6] = biological target: T1, PfCRT^3D7; experiment: cell-based; type: cell-based; conditions: PfCRT3D7 oocytes; for Uptake of [3H]CQ (% PfCRT3D7 control), trans-stimulation: total [3H]CQ transport, normalised to the oocyte type control; for PfCRT-mediated [3H]CQ transport, trans-stimulation (% PfCRT3D7 control): normalised to oocyte type control
How it was run: (§2)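 Transport measured in Xenopus oocytes expressing the transporters, 1.5 h at 27.5 °C in ND96 pH 5.5 unless noted. For trans-stimulation, VF-6 injected in 25 nL ND96 at pH 5.0–7.0 or Na^+-free (choline) buffer; intracellular levels based on ~400 nL oocyte volume. Ten oocytes per treatment, ≥4 experiments.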

PfCRT^Dd2 [7] = biological target: T2, PfCRT^Dd2; experiment: cell-based; type: cell-based; conditions: for Uptake of [3H]CQ (% PfCRTDd2 control), trans-stimulation / PfCRT-mediated [3H]CQ transport, trans-stimulation (% PfCRTDd2 control): PfCRTDd2 oocytes; for Uptake of [3H]CQ (% PfCRTDd2 control), trans-stimulation: total [3H]CQ transport, normalised to the oocyte type control; for PfCRT-mediated [3H]CQ transport, trans-stimulation (% PfCRTDd2 control): normalised to oocyte type control; for [3H]CQ transport (% PfCRTDd2 control), trans-stimulation, PfCRTDd2: PfCRT-mediated component (background subtracted), mean ± SEM, SEM
How it was run: as §2

PfCRT^Ecu1110 [8] = biological target: T3, PfCRT^Ecu1110; experiment: cell-based; type: cell-based; conditions: for Uptake of [3H]CQ (% PfCRTEcu1110 control), trans-stimulation / PfCRT-mediated [3H]CQ transport, trans-stimulation (% PfCRTEcu1110 control): PfCRTEcu1110 oocytes; for Uptake of [3H]CQ (% PfCRTEcu1110 control), trans-stimulation: total [3H]CQ transport, normalised to the oocyte type control; for PfCRT-mediated [3H]CQ transport, trans-stimulation (% PfCRTEcu1110 control): normalised to oocyte type control; for [3H]CQ transport (% PfCRTDd2 control), trans-stimulation, PfCRTEcu1110: PfCRT-mediated component (background subtracted), sheet title says normalised to PfCRTDd2 control, mean ± SEM, SEM
How it was run: as §2

PfNT1 = biological target: T4, PfNT1 (Plasmodium falciparum, UniProt Q8IDM6); experiment: cell-based; type: cell-based; conditions: PfNT1 oocytes, total [3H]CQ transport, normalised to the oocyte type control
T4 construct: expressed in transfected cells; host or cells: Xenopus laevis oocytes (stage V-VI), cRNA-injected
How it was run: as §2

[9] = [test solute]i = 45 mM (30 mM for some solutes due to solubility)
[10] = [test solute]i = 5 mM (intracellular)
[11] = [test solute]i = 45 mM (intracellular; 30 mM for some solutes due to solubility)
[12] = [test solute]i = 5 mM (injected)

T1 sequence (Q8IBZ9 59-398): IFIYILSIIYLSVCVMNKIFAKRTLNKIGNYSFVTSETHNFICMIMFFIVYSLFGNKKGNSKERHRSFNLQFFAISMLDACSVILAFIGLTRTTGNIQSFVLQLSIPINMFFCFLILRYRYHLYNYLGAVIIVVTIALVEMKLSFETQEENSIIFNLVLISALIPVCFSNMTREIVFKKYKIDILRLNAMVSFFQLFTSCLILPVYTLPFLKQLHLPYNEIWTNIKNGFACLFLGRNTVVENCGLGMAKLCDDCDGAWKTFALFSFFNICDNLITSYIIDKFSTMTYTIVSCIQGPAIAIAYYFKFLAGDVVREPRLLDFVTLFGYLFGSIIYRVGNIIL
T3 sequence (Q9N623 whole entry A220S/I356L/K76T/N326D): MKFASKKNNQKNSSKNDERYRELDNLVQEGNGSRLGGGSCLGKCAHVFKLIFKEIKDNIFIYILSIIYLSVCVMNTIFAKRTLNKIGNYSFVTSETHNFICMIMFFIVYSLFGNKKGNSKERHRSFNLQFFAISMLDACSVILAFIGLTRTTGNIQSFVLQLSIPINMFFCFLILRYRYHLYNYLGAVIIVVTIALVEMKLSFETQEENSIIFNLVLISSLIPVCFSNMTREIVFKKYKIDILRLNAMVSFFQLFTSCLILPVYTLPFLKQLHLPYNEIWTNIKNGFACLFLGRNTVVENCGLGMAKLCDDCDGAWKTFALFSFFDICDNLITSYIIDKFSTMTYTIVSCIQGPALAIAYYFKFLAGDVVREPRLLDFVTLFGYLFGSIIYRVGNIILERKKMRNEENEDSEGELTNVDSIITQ
T2 sequence (Q9N623 whole entry A220S/I356T/K76T/M74I/N326S/N75E/Q271E/R371I): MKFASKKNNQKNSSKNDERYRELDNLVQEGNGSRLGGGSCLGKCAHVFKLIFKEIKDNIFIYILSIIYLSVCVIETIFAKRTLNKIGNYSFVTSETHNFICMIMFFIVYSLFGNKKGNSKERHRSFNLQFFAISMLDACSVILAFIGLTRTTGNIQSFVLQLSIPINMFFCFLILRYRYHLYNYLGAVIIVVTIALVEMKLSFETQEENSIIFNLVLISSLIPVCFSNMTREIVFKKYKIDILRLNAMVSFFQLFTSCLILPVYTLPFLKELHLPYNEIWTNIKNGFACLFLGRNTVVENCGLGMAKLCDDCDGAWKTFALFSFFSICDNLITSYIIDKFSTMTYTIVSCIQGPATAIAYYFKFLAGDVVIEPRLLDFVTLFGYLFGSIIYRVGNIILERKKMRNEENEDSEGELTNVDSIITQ
T4 sequence (Q8IDM6 whole entry): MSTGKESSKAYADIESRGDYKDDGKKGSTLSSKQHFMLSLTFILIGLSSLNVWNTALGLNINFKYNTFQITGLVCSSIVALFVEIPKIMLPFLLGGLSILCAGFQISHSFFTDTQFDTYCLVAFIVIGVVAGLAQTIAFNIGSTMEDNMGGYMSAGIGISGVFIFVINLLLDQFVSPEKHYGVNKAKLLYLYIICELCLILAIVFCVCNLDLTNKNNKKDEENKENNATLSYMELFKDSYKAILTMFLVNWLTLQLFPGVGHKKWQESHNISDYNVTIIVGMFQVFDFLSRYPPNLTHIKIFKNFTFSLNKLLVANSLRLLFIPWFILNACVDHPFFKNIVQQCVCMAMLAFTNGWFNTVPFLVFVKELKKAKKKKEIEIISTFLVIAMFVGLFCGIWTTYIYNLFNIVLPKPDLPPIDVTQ

## PVQA [PA-4]
non-expressing oocytes [1]; [test solute] = 0.5 mM
  Uptake of [3H]CQ (% non-expressing oocyte control), cis-inhibition: 98 ± 3.0 % non-expressing oocyte control
non-expressing oocytes [1]; [test solute] = 1 mM
  Uptake of [3H]CQ (% non-expressing oocyte control), cis-inhibition: 100 ± 4.7 % non-expressing oocyte control
non-expressing oocytes [1]; [test solute] = 2 mM
  Uptake of [3H]CQ (% non-expressing oocyte control), cis-inhibition: 98 ± 3.9 % non-expressing oocyte control
PfCRT^3D7 [2]; [test solute] = 0.5 mM
  Uptake of [3H]CQ (% PfCRT3D7 control), cis-inhibition: 99 ± 5.3 % PfCRT3D7 control
PfCRT^3D7 [2]; [test solute] = 1 mM
  Uptake of [3H]CQ (% PfCRT3D7 control), cis-inhibition: 99 ± 4.8 % PfCRT3D7 control
PfCRT^3D7 [2]; [test solute] = 2 mM
  Uptake of [3H]CQ (% PfCRT3D7 control), cis-inhibition: 99 ± 5.7 % PfCRT3D7 control
PfCRT^Dd2 [3]; [test solute] = 0.5 mM
  PfCRT-mediated [3H]CQ transport, cis-inhibition (% PfCRTDd2 control): 51 ± 3.0 % PfCRTDd2 control
PfCRT^Dd2 [3]; [test solute] = 1 mM
  PfCRT-mediated [3H]CQ transport, cis-inhibition (% PfCRTDd2 control): 41 ± 2.9 % PfCRTDd2 control
PfCRT^Dd2 [3]; [test solute] = 2 mM
  PfCRT-mediated [3H]CQ transport, cis-inhibition (% PfCRTDd2 control): 31 ± 1.2 % PfCRTDd2 control
PfCRT^Ecu1110 [4]; [test solute] = 0.5 mM
  Uptake of [3H]CQ (% PfCRTEcu1110 control), cis-inhibition: 65 ± 2.9 % PfCRTEcu1110 control
  PfCRT-mediated [3H]CQ transport, cis-inhibition (% PfCRTEcu1110 control): 61 ± 0.4 % PfCRTEcu1110 control
PfCRT^Ecu1110 [4]; [test solute] = 1 mM
  Uptake of [3H]CQ (% PfCRTEcu1110 control), cis-inhibition: 59 ± 3.6 % PfCRTEcu1110 control
  PfCRT-mediated [3H]CQ transport, cis-inhibition (% PfCRTEcu1110 control): 52 ± 2.6 % PfCRTEcu1110 control
  [3H]CQ transport (% PfCRTEcu1110 control), cis-inhibition, PfCRTEcu1110: 16 ± 0.1 % PfCRTEcu1110 control
PfCRT^Ecu1110 [4]; [test solute] = 2 mM
  Uptake of [3H]CQ (% PfCRTEcu1110 control), cis-inhibition: 43 ± 2.5 % PfCRTEcu1110 control
  PfCRT-mediated [3H]CQ transport, cis-inhibition (% PfCRTEcu1110 control): 39 ± 2.1 % PfCRTEcu1110 control
  [3H]CQ transport (% PfCRTEcu1110 control), cis-inhibition, PfCRTEcu1110: 12 ± 0.2 % PfCRTEcu1110 control
non-expressing oocytes [5]
  Uptake of [3H]CQ (% non-expressing oocyte control), trans-stimulation: 100 ± 2.6 % non-expressing oocyte control
PfCRT^3D7 [6]; [test solute]i = 5 mM
  Uptake of [3H]CQ (% PfCRT3D7 control), trans-stimulation: 130 ± 4.2 % PfCRT3D7 control
PfCRT^3D7 [6]; [9]
  Uptake of [3H]CQ (% PfCRT3D7 control), trans-stimulation: 149 ± 5.8 % PfCRT3D7 control
PfCRT^3D7 [6]; [10]
  PfCRT-mediated [3H]CQ transport, trans-stimulation (% PfCRT3D7 control): 124 ± 3.2 % PfCRT3D7 control
PfCRT^3D7 [6]; [11]
  PfCRT-mediated [3H]CQ transport, trans-stimulation (% PfCRT3D7 control): 141 ± 4.0 % PfCRT3D7 control
PfCRT^Dd2 [7]; [test solute]i = 5 mM
  Uptake of [3H]CQ (% PfCRTDd2 control), trans-stimulation: 98 ± 2.2 % PfCRTDd2 control
PfCRT^Dd2 [7]; [9]
  Uptake of [3H]CQ (% PfCRTDd2 control), trans-stimulation: 115 ± 1.1 % PfCRTDd2 control
  [3H]CQ transport (% PfCRTDd2 control), trans-stimulation, PfCRTDd2: 110 ± 0.9 % PfCRTDd2 control
PfCRT^Dd2 [7]; [10]
  PfCRT-mediated [3H]CQ transport, trans-stimulation (% PfCRTDd2 control): 96 ± 3.2 % PfCRTDd2 control
PfCRT^Dd2 [7]; [11]
  PfCRT-mediated [3H]CQ transport, trans-stimulation (% PfCRTDd2 control): 110 ± 0.9 % PfCRTDd2 control
PfCRT^Dd2 [7]; [12]
  [3H]CQ transport (% PfCRTDd2 control), trans-stimulation, PfCRTDd2: 96 ± 3.2 % PfCRTDd2 control
PfCRT^Ecu1110 [8]; [test solute]i = 5 mM
  Uptake of [3H]CQ (% PfCRTEcu1110 control), trans-stimulation: 122 ± 3.0 % PfCRTEcu1110 control
PfCRT^Ecu1110 [8]; [9]
  Uptake of [3H]CQ (% PfCRTEcu1110 control), trans-stimulation: 133 ± 3.5 % PfCRTEcu1110 control
  [3H]CQ transport (% PfCRTDd2 control), trans-stimulation, PfCRTEcu1110: 38 ± 1.1 % PfCRTEcu1110 control
PfCRT^Ecu1110 [8]; [10]
  PfCRT-mediated [3H]CQ transport, trans-stimulation (% PfCRTEcu1110 control): 117 ± 2.4 % PfCRTEcu1110 control
PfCRT^Ecu1110 [8]; [11]
  PfCRT-mediated [3H]CQ transport, trans-stimulation (% PfCRTEcu1110 control): 127 ± 1.9 % PfCRTEcu1110 control
PfCRT^Ecu1110 [8]; [12]
  [3H]CQ transport (% PfCRTDd2 control), trans-stimulation, PfCRTEcu1110: 35 ± 1.3 % PfCRTEcu1110 control
PfNT1; [test solute]i = 5 mM
  Uptake of [3H]CQ (% PfNT1 control), trans-stimulation: 96 ± 3.5 % PfNT1 control
PfNT1; [9]
  Uptake of [3H]CQ (% PfNT1 control), trans-stimulation: 98 ± 3.4 % PfNT1 control
